“Also recorded” adds a separate entry of the source.
Columns and labels:
RAW264.7 macrophages = assay: Engulfment of supported lipid bilayer-coated silica beads by macrophages (confocal quantification); type: cell-based; conditions: for engulfment of IgG-coated beads in the absence of CD47: manganese treatment, IgG titration
Description: 8.6×10^8 silica beads with a 5.02 μm diameter (10 μl of 10% solids, Bangs Labs, Catalog #SS05N) were washed three times with PBS, mixed with 1 mM SUVs in PBS and incubated at room temperature for 0.5-2 hours with end-over-end mixing to allow for bilayer formation. Beads were then washed three times with PBS to remove excess SUVs and incubated in 100 μl of 0.2% casein (Sigma, catalog #C5890) in PBS for 15 min before protein coupling. […] Purified CD47^ext-His10 was added at […]. Proteins were coupled to the bilayer for 1 hour at room temperature with end-over-end mixing.
Unless otherwise noted, macrophages remained in culture media (DMEM with 10% heat inactivated serum) throughout the experiment. ˜8×10^5 beads were added to well and engulfment was allowed to proceed for 30 min. Cells were fixed with 4% PFA and stained with CellMask (ThermoFisher, catalog #C10045) without membrane permeabilization to label cell boundaries.

[1] = tested on: complement-opsonized CD47+ mouse red blood cells; conditions: 1 mM manganese
Description: For the mouse red blood cell internalization assay, 30,000 RAW264.7 macrophages (ATCC) were plated in one well of a 96-well glass bottom MatriPlate (Brooks, MGB096-1-2-LG-L) between 12 and 24 hours prior to the experiment. Mouse red blood cells (RBCs) (Innovative Research, 88R-M001) were washed into PBS and stained with CSFE (Thermo Fisher, C34554) or Alexa Fluor 488 NHS Ester (ThermoFisher, A20000) for 1 hr at room temperature. RBCs were then opsonized with C3bi as previously described (Chow et al., 2004). Briefly, RBCs were incubated with anti-mouse IgM (MyBioSource, MBS524107) for 1 hour at 37° C. A portion of RBCs were separated for IgM controls, and the remaining RBCs were incubated with C5 deficient serum (Sigma-Aldrich, C1163) for 1 hour at 37° C. Macrophages were washed into serum-free HEPES imaging buffer and incubated with 150 ng/mL PMA and 1 mM Manganese or water. ˜1×10^6 RBCs were added to each well and engulfment was allowed to proceed for 1 hour in incubator. Cells were washed with PBS, unengulfed RBCs were lysed with water for 2 min, and cells were fixed with 4% PFA. Remaining non-lysed, non-engulfed RBCs were stained with APC anti-iC3b antibody (Biolegend, 1:200 dilution, 846106) for 30 minutes. Macrophages were stained with CellMask orange (ThermoFisher, 1:5,000 dilution) and Hoechst (Invitrogen, H3570, 1:1,000 dilution) for 15 minutes. […]

[2] = tested on: L1210 murine leukemia cells; assay: Whole cell internalization assay, 8 hr timelapse imaging; type: cell-based, mouse; conditions: 100 μM manganese, bone marrow derived macrophages
Description: For timelapse imaging, 30,000 primary bone marrow derived macrophages infected with GFP-CAAX were plated in a 96-well glass bottom MatriPlate (Brooks, Catalog #MGB096-1-2-LG-L). 2 hours prior to imaging, cells were washed into serum-free, phenol free DMEM for imaging. Manganese (SigmaAldrich, M8054) was added at 100 μM 30 min prior to imaging. When indicated, CD47 function-blocking antibody clone miap301 (Biolegend, 127520) was used at […]. 100,000 H2B-mCherry expressing L1210 cells were added and the co-culture was imaged for 8 hr.

SMILES: [Mn+2] [manganese, Manganese]
- engulfment of IgG beads with versus without CD47 (RAW264.7 macrophages; macrophages treated with 1 mM manganese, beads with IgG and CD47 or non-signaling CD47 F37D,T115K): engulfed beads with a similar efficiency whether or not CD47 was conjugated to the supported lipid bilayer
- engulfment of IgG-coated beads in the absence of CD47 (RAW264.7 macrophages): did not trigger bead engulfment on its own or dramatically enhance engulfment of IgG-coated beads in the absence of CD47
- engulfment of IgG-coated beads in the absence of CD47 (RAW264.7 macrophages; listed as Mn2+): did not dramatically enhance engulfment
- bead engulfment triggered on its own (RAW264.7 macrophages; manganese, no IgG): did not trigger bead engulfment on its own
- engulfment of control IgM-treated RBCs [1]: not control IgM-treated RBCs
- engulfment of complement-opsonized RBCs ([1]; RAW264.7 macrophages, 1 hour): dramatically increased engulfment of complement-opsonized RBCs
- macrophages engulfing a cancer cell [2]: increased the ability of macrophages to engulf cancer cells; also recorded: allowed for engulfment of whole cancer cells; also recorded: can drive engulfment of whole cancer cells
